Experimental data taken from patent US9901538B2, “Personal care composition containing yeast/polyphenol ferment extract” (priority 2008, dated 2018).

Test system: Pichia pastoris
Test: 2-Dimensional gel electrophoresis of yeast protein expression
Format: cell-based
Conditions: 2D gel, 626 spots analyzed, FIG. 2 and 3
Procedure: To identify the metabolic changes in the yeast because of the polyphenol feed-strategy, 2-Dimensional gel electrophoreses and gene microarray analysis was conducted on the control, (i.e., a yeast extract without resveratrol growth factor), and a yeast-resveratrol ferment extract produced by the process of the present invention. The first dimension IEF focuses on separation of the proteins based on their isoelectric points and was conducted using the EttanIPGphor system with a manifold for protein loading. The 2nd dimension SDS-PAGE is an electrophoretic method for separating polypeptides according to their molecular weights using the DALT VI Electrophoresis Unit (GE-Amersham, Piscataway N.J.) (2, 6). To remove interfering substances and impurities, the yeast cell extracts were purified using the 2D Clean-up kit provided by GE Amersham. Each purified yeast sample was rehydrated overnight with Thiourea rehydration solution (7M Urea and 2M Thiourea, 2% Chaps, 0.5% Pharmalyte). The rehydrated samples were loaded onto the 1st dimension IEF. […]
FIG. 3 illustrates the laser densitometer comparison of the control versus the yeast/resveratrol of the invention. Reference spot numbering, pI, and MW are given for changing polypeptide spots and analyzed in the samples. […] A total of 626 spots were analyzed.

Oc1ccc(/C=C/c2cc(O)cc(O)c2)cc1 [resveratrol, 3,4,5-transhydroxystilbene]
proteomic changes of the yeast versus untreated control: significant proteomic changes
